This is an account of results in US8957184B2, “Pro-apoptotic peptides” (priority 2009, dated 2015).

Data set [1] concerns Exponentially proliferating cells. As to the kind of experiment: Intracellular detection of biotinylated peptides (cell penetration). The class given is cell-based. The protocol:
Exponentially proliferating cells were rinsed twice in PBS. A total of 6×10^4 cells per well were seeded in 24 well plates and incubated in RPMI-1640 at 37° C. After 24 h, biotinylated peptides were added and incubated with cells (4 h) for intracellular analysis. Cells were rinsed in PBS and fixed with 0.1% paraformaldehyde (PFA) for 10 min before adding […] of streptavidin-peroxidase. Then, cells were rinsed with PBS, incubated with di-amino-benzidyne (DAB) for 5 min, washed in PBS and analyzed by microscopy.

For data set [2], the system named is primary B cells from CLL patients. Put plainly: Effect of DPT-C9h on PBMC: B cells from CLL patients (annexin staining). The class given is cell-based, human. The protocol:
PBMC (Peripheral Blood Mononuclear Cell) were isolated by Ficoll gradient centrifugation from healthy donors and CLL patients, cultured in complete RPMI medium and treated with 150 μM of DPT-C9h peptide. Upon 3 h of treatment, cells were washed and resuspended in complete RPMI medium. Apoptosis was estimated 6 h after washing using Annexin staining and specific markers for B cells (FIG. 4A), and for T, NK and monocytes (FIG. 4B). Apoptosis is represented as the percentage compared to cells treated with […].
PBMC were isolated by Ficoll gradient centrifugation from healthy donors and three different types of CLL patients: treated, non-treated and resistant. Cells were maintained in complete RPMI medium, treated with 150 μM of DPT-C9h peptide for 3 h and then washed and transferred to complete medium. Samples were analyzed at different times after washing. Apoptosis was estimated by annexin staining. The different populations were selected using specific markers. Apoptosis is represented as percentage compared to control non treated cells.
Mononuclear cells isolated from peripheral blood (PBMC) were prepared by Ficoll gradient centrifugation.
A total of 2.5×10^5 cells were washed with ice-cold PBS, diluted in ice-cold binding buffer and stained with annexin and propidium iodide (PI). Samples were maintained on ice for 10 min in the dark and then analyzed by flow cytometry.

For data set [3], the system named is bone marrow B cells from CLL patients. Put plainly: Effect of DPT-C9h on bone marrow cells, CLL patients. The data set is classed as cell-based, human.

Where two headings read alike, the source gives them in different places. Ends that are not written are not given here.

As to “VKKKKIKREIKIYIETLDGILEQWARSEDL [DPT-C9, VKKKKIKREIKI-YIETLDGILEQWARSEDL]”, in data set [1], the internalization of peptide result is given as “internalized”.

As to VKKKKIKREIKI [DPT-sh1, VKKKKIKREIKI], in data set [1] (data not shown), the internalization of peptide result is “internalized”.

Turning to “VKKKKIKREIKIYVETLDGIFEQWAHSEDL [DPT-C9h, VKKKKIKREIKI-YVETLDGIFEQWAHSEDL]”, the penetrating properties entry in data set [2] was “penetrating”. In data set [3], the cell penetrating activity result is on record as “cell penetrating”.

Regarding “VKKKKIKREIKILDESRAWQELIGDLTEIY [DPT-C9r, VKKKKIKREIKI-LDESRAWQELIGDLTEIY]”, the internalization of peptide result in data set [1] (data not shown) is “internalized”.

“YIETLDGILEQWARSEDL [C9, YIETLDGILEQWARSEDL]”: the internalization of peptide result in data set [1] (data not shown) is given as “not internalized”.

Regarding `N=C(N)NCCC[C@H](NC(=O)[C@H](CCCNC(=N)N)NC(=O)[C@H](CCCNC(=N)N)NC(=O)[C@H](CCC(N)=O)NC(=O)[C@H](CCCNC(=N)N)NC(=O)[C@H](CCCNC(=N)N)NC(=O)[C@H](CCCCN)NC(=O)[C@H](CCCCN)NC(=O)[C@H](CCCNC(=N)N)NC(=O)CNC(=O)[C@@H](N)Cc1ccc(O)cc1)C(=O)O` [Tat, YGRKKRRQRRR], the internalization of peptide result in data set [1] (data not shown) was “internalized”.
